Measurements published in patent US3985764A, “Production of fused oxazoline azetidinones” (Queen's University, priority 1974, dated 1976).

System: S. lutea
Assay: antibacterial activity vs. S. lutea (plate assay)
Format: cell-based
Settings: versus S. lutea

Structure (SMILES): CC1(C)O[C@@H]2[C@H](N3C(=O)c4ccccc4C3=O)C(=O)N2[C@H]1C(=O)O [6-phthalimido oxapenicillin]
- antibacterial activity relative to phthalimidopenicillin: one-tenth the level of phthalimidopenicillin
